“And” between values parts separate entries of the source, which are not always exact repeats. Equal entries are not always repeated.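 Five compound concentrations were applied to cells in 96-well plates for 48 hours; endpoints were derived by simple linear interpolation of the resulting dose-response curve. GI50: concentration for 50% inhibition of growth. Definition used: TGI = concentration required for complete inhibition of growth.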 Some results are limits rather than exact numbers.

In PubChem BioAssay (NCI) one finds TGI and GI50 data, which are given here for 13 compounds.

Assay in all cases: NCI tumour cell line growth inhibition, 48 h
The test system of assay [1] is A498 renal.
The test system of assay [2] is KM12 colon.
For assay [3], the system named is HCT-116 colon.
Assay [4] concerns SNB-19 CNS.
Assay [5] concerns ACHN renal.
The test system of assay [6] is NCI-H460 lung.
In assay [7] the test system is RXF 393 renal.
In assay [8] the test system is U251 CNS.
Assay [9] deals with HCC-2998 colon.
The subject of assay [10] is M14 melanoma.

Regarding `CCOC(=O)c1ncn2c1[nH]c(=S)c1ccccc12`, the TGI in [1], in [2], in assay [3], in assay [4], in assay [5] and in assay [6] was greater than 100 µM each time. Further, the TGI in assay [7], in assay [8], in [9] and in assay [10] was greater than 100 µM in each case.
Take `CC[C@@]12CCCN3CC[C@]4(c5cccc(OC)c5N(C(C)=O)[C@@H]4CC1)[C@H]32`: the TGI in assay [1], in assay [2], in assay [3], in [4], in assay [5] and in assay [6] was greater than 100 µM each time. For the same compound, the TGI is greater than 100 µM in [7], greater than 100 µM in assay [8], 51.1 µM in [9] and greater than 100 µM in assay [10].
Consider `CC1(C)COC(c2ccc(C(F)(F)F)cc2C(O)c2ccc3ccccc3c2)=N1` (stereo not drawn), for which the GI50 is greater than 100 µM in assay [1]; greater than 100 µM in [2]; greater than 10 µM in assay [4]; greater than 100 µM in assay [5]; greater than 10 µM in assay [7]; greater than 100 µM in assay [8]. Moreover, the GI50 in assay [9] and in [10] was greater than 100 µM throughout. Further, the TGI is greater than 100 µM in assay [1]; greater than 100 µM in [2]; greater than 10 µM in [3]; greater than 100 µM in assay [4]; greater than 100 µM in assay [5]; greater than 10 µM in [6]. In addition, the TGI in assay [7] was > 10 µM and 44.3 µM; in [8], greater than 100 µM; in [9] it was greater than 100 µM; in assay [10], greater than 100 µM.
In the case of `C[C@@H](CS(C)(=O)=O)Nc1ncc2cc(Oc3ccc(F)cc3F)c(=O)n(C)c2n1`, the GI50 in assay [1], in [2], in assay [3], in assay [4], in [5] and in assay [6] was greater than 25 µM each time. Also, the GI50 in assay [7], in [8], in [9] and in assay [10] was greater than 25 µM in each case. Besides, the TGI in [1], in assay [2], in assay [3], in [4], in [5] and in assay [6] was greater than 25 µM throughout. For the same compound, the TGI in [7], in assay [8], in assay [9] and in assay [10] was greater than 25 µM throughout.
As for `Cn1ccnc1C(=O)/C=C/c1ccc(CC(=O)Nc2ccc(Br)cc2)cc1`, the GI50 is 4.35 µM in assay [1]; 2.66 µM in [2]; 1.56 µM in assay [3]; 2.61 µM in [4]; 4.4 µM in assay [5]; 3 µM in [6]. Further, the GI50 in assay [7] is 3.12 µM; in assay [8], 1.97 µM; in [9], 2.95 µM; in assay [10], 2.63 µM. For the same compound, the TGI in [1] is 12.6 µM; in assay [2], 5.51 µM; in assay [3] it was 4.63 µM; in [4], 5.75 µM; in assay [5], greater than 16.7 µM; in assay [6] it was 8.51 µM. Moreover, the TGI in [7] stood at 6.03 µM; in [8], 4.51 µM; in [9] it was 5.9 µM; in assay [10] it was 6.07 µM.
As for `COc1cc2c(c(OC)c1O)C(=O)C(OC)C(c1ccc(O)c(O)c1)O2` (stereo not drawn), the GI50 is 0.228 µM in assay [1]; 0.515 µM in assay [2]; 0.396 µM in assay [3]; 0.275 µM in [4]; 0.662 µM in [5]; 0.364 µM in assay [6]. Also, the GI50 in assay [7] was 0.305 µM; in assay [8] it was 0.418 µM; in [9], 0.645 µM; in [10], 0.155 µM. Further, the TGI is 0.812 µM in [1]; greater than 100 µM in [2]; greater than 100 µM in [3]; greater than 100 µM in assay [4]; greater than 100 µM in assay [5]; greater than 100 µM in assay [6]. The TGI in assay [7], in assay [8], in [9] and in assay [10] was greater than 100 µM throughout.
For the compound `O=C(Nc1ccc(F)cc1F)c1cc(I)ccc1O`, the GI50 in [1] is 1.45 µM; in assay [2] it was 2.93 µM; in assay [3] it was 2.53 µM; in assay [4] it was 3.11 µM; in [5] it was 2.5 µM; in [6], 3.13 µM. Besides, the GI50 was 2.5 µM in assay [7], 3.07 µM in [8], 3.73 µM in assay [9] and 2.21 µM in assay [10]. The TGI in assay [1] was 3.31 µM; in assay [2], 9.53 µM; in [3], 7.6 µM; in [4] it was greater than 100 µM; in [5], 7.62 µM; in [6], greater than 100 µM. In addition, the TGI in assay [7] was 7 µM; in assay [8] it was greater than 100 µM; in assay [9] it was 47 µM; in assay [10], 8.05 µM.
Regarding `O=C(CN1CCN(c2cc3c(cc2F)c(=O)c(C(=O)N/N=C/c2ccccc2O)cn3C2CC2)CC1)N/N=C\c1ccccc1O`, the GI50 in assay [1] is 6.03 µM; in assay [2], 0.462 µM; in [3], 0.443 µM; in [4] it was 1.18 µM; in assay [5] it was 0.351 µM; in [6], 0.367 µM. Moreover, the GI50 in [7] was 1.32 µM; in [8] it was 0.367 µM; in [9] it was 0.615 µM; in assay [10], 0.384 µM. The TGI is greater than 100 µM in [1]; greater than 100 µM in assay [2]; greater than 100 µM in [3]; greater than 100 µM in assay [4]; greater than 100 µM in assay [5]; greater than 48.7 µM in assay [6]. Moreover, the TGI in assay [7] is greater than 100 µM; in [8], greater than 100 µM; in assay [9] it was greater than 100 µM; in [10] it was 5.02 µM.
With `COc1cc(/C=C/c2cc(/C=C/c3ccc(O)c(OC)c3)n(C(=O)Nc3ccc(F)cc3)n2)ccc1O`, the GI50 in assay [1] was 2.42 µM; in assay [2] it was 0.46 µM; in [3], 0.422 µM; in [4], 1.23 µM; in [5] it was 0.704 µM; in [6], 0.546 µM. For the same compound, the GI50 was 0.268 µM in [7], 0.769 µM in assay [8], 2.53 µM in [9] and 0.46 µM in assay [10]. Besides, the TGI in [1] is 6.46 µM; in [2] it was 9.12 µM; in assay [3], 10.3 µM; in assay [4], 22.7 µM; in [5] it was 61.2 µM; in [6], 12.4 µM. The TGI worked out at 0.994 µM in assay [7], 10.5 µM in [8], 10.6 µM in [9] and 7.5 µM in [10].
For the compound `NC(CCc1nc(-c2ccc(Cl)cc2)cs1)C(=O)O` (stereo not drawn), the TGI in [1], in assay [2], in assay [3], in assay [4], in assay [5] and in assay [6] was greater than 100 µM throughout. Besides, the TGI in assay [7], in assay [8], in assay [9] and in [10] was greater than 100 µM in each case.
`CC(C)=CCCc1c(C)ccc2c1C(=O)C(=O)C(C(C)C)=C2`: the TGI was greater than 22 µM in assay [1]; greater than 22 µM in assay [2]; 6.55 µM in assay [3]; greater than 22 µM in [4]; 6.84 µM in [5]; greater than 22 µM in assay [6]. For the same compound, the TGI in [7] is 6.79 µM; in assay [8] it was greater than 22 µM; in assay [9] it was greater than 22 µM; in assay [10], 7.95 µM.
As to `O=C1c2cccnc2-c2nc(-c3ccccc3[N+](=O)[O-])cc3c2c1nc1ccccc13`, the GI50 in assay [1] was greater than 77.3 µM; in assay [2], 14.1 µM; in assay [3], 5.83 µM; in assay [4] it was 24.2 µM; in assay [5], 9.03 µM; in assay [6] it was 12 µM. Besides, the GI50 in assay [7] is 20.7 µM; in [8], 4 µM; in [9], 19.7 µM; in assay [10], 2.99 µM. Besides, the TGI is greater than 100 µM in assay [1]; greater than 55 µM in assay [2]; 16.7 µM in assay [3]; 84.7 µM in assay [4]; greater than 92.2 µM in assay [5]; 33.8 µM in assay [6]. The TGI is 98.3 µM in assay [7], 19.6 µM in assay [8], 45 µM in assay [9] and 10.7 µM in [10].
Regarding `NS(=O)(=O)c1ccccc1C(=O)N/N=C(\c1nc2ccc([N+](=O)[O-])cc2[nH]c1=O)C(O)c1ccc([N+](=O)[O-])cc1` (stereo not drawn), the TGI in assay [1], in [2], in assay [3], in assay [4], in assay [5] and in [6] was greater than 100 µM throughout. Also, the TGI in assay [7], in assay [8], in assay [9] and in assay [10] was greater than 100 µM in each case.
